Laboratory results published in patent US20090042809A1, “Blood Pressure Lowering Protein Hydrolysates” (priority 2005, published 2009).
Entries after “also recorded” stand apart in the source; their conditions may differ.

Experiments:
[1] = molecular target: ACE (Homo sapiens, UniProt P12821); settings: cited from earlier work; for IC50: Nakamura et al. 1995, Aryoshi 1993, read-out: IC50 values reported earlier for ACE inhibiting peptides; for ACE inhibiting activities reported: in vitro, prior art
Sequence of ACE (Homo sapiens, UniProt P12821) (P12821 30-1306, species assumed): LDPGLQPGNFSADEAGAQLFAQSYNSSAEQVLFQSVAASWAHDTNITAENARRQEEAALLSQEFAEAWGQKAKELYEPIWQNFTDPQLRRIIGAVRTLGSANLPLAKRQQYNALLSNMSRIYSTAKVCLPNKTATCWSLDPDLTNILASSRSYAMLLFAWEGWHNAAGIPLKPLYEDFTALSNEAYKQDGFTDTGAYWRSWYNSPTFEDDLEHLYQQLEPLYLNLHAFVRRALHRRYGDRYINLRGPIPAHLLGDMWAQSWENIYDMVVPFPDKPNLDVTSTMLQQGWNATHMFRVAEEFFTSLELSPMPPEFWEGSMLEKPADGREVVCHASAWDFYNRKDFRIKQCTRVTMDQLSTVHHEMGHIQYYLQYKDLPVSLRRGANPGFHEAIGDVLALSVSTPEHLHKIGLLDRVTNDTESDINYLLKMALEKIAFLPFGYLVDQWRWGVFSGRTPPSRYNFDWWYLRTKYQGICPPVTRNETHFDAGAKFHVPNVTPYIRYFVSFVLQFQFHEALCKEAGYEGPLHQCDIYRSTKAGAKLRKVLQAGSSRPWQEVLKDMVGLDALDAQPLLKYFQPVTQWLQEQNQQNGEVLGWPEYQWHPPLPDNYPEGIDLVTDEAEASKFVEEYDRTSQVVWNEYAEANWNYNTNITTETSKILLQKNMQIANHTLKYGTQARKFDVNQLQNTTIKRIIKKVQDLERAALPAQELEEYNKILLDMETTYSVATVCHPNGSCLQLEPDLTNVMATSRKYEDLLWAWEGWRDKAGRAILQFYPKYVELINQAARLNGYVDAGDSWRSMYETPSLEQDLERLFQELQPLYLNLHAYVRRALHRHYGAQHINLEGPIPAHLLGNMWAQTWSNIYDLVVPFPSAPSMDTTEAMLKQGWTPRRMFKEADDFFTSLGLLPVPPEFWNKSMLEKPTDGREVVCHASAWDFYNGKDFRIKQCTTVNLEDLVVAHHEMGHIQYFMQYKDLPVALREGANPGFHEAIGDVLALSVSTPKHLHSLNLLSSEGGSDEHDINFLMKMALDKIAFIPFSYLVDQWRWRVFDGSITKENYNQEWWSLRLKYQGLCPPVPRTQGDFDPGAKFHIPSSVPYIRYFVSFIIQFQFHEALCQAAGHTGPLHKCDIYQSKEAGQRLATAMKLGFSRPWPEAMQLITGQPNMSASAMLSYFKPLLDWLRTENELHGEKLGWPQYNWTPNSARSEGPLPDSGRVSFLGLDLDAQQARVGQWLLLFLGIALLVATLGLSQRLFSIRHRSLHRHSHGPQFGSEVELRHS

[2] = system: ACE; test: at-line ACE inhibition assay (HHL substrate, HPLC read-out); assay type: biochemical; settings: at-line measurements used in the screening phase
Description: The presence of novel ACE inhibiting peptides in CDBAP was investigated by using 2-dimensional-chromatographic-separation combined with an at-line ACE inhibition assay and mass spectrometry for identification. In the first analysis the peptide mixture was separated on an ODS3 liquid chromatography (LC) column and ACE inhibition profiles were generated from the various fractions obtained. In a second analysis the fractions from the first column showing a high ACE inhibition were further separated on a Biosuite LC column using a different gradient profile. The fractions collected from this second column were split into two parts: one part was used for the at-line ACE inhibition measurement while the other part was subjected to MS and MS-MS analysis to identify the peptides present. […]
The 96 well plate was then analysed on a flash-HPLC-column. […] Hippuric acid (H) and HHL were monitored at 280 nm. The peak heights of H and HHL were measured and the ACE inhibition (ACEI) of each fraction was calculated according to the equation:
[formula] • ACEIα Percentage inhibition of the analyte • Dcw Degree of Cleavage by ACE of HHL to H and HL in water • Dca Degree of Cleavage of HHL to H and HL for the analyte The Degree of Cleavage was calculated by expressing the peak height of H as a fraction of the sum of the peak heights of H and HHL.

[3] = system: ACE; test: modified Matsui ACE inhibition assay (Hip-His-Leu, TNBS); assay type: biochemical
Description: To determine the ACE inhibition activity of MAP and ITP, the chemically synthesised tripeptides were assayed according to the method of Matsui et al. (Matsui, T. et al. (1992) Biosci. Biotech. Biochem. 56: 517-518) with some minor modifications.
Each one of the four samples contained 75 μl 3 mM hippuryl histidine leucine (Hip-His-Leu, Sigma Chemicals) dissolved in a 250 mM borate solution containing 200 mM NaCl, pH 8.3. ACE was obtained from Sigma Chemicals. The mixtures were incubated at 37° C. and stopped after 30 min by adding 125 μl 0.5 M HCl. Subsequently, 225 μl bicine/NaOH solution (1 M NaOH: 0.25 M bicine (4:6)) was added, followed by 25 μl 0.1 M TNBS (2,4,6-Trinitrobenzenesulfonic acid, Fluka, Switzerland; in 0.1 M Na2HPO4). After incubation for 20 min. at 37° C., 4 ml 4 mM Na2SO3 in 0.2 M NaH2PO4 was added and the light absorbance at 416 nm was measured with UV/Vis spectrophotometer (Shimadzu UV-1601 with a CPS controller, Netherlands).
The amount of ACE inhibition (ACEI) activity was calculated as a percentage of inhibition compared with the conversion rate of ACE in the absence of an inhibitor according to the following formula:
ACEI (%)=((Control 1−Control 2)−(Sample 1−Sample 2))/(Control 1−Control 2))*100
wherein • Control 1=Absorbance without ACE inhibitory component (=max. ACE activity) [AU]. • Control 2=Absorbance without ACE inhibitory component and without ACE (background) [AU]. • Sample 1=Absorbance in the presence of ACE and the ACE inhibitory component [AU]. • Sample 2=Absorbance in the presence of the ACE inhibitory component, but without ACE [AU].

[4] = system: spontaneously hypertensive rats; settings: tripeptides from fermented milk (Nakamura et al. 1995); cited from earlier work
[5] = gastrointestinal treatment (GIT) simulating digestion with pepsin and pancreatin; assay type: in vitro ADME, human
Description: After consumption, dietary proteins and peptides are exposed to various digestive enzymatic processes in the gastrointestinal tract. In order to assess the stability of the newly identified bioactive peptides in the human gastrointestinal tract, the CDBAP preparation (prepared as described in Example 7) was subjected to a gastrointestinal treatment (GIT) simulating the digestive conditions typically found in the human body. Samples obtained after various incubation times in the GIT model system were analysed using the on-line HPLC-Bioassay-MS or HRS-MS system to quantify any residual MAP and ITP peptides. The GIT procedure was performed in a standardized mixing device incorporating a 100 ml flask (as supplied by Vankel, US). The temperature of the water bath was set to 37.5° C. and the paddle speed was chosen such that the sample was kept in suspension (100 rpm).
About 3.4 grams of CDBAP (protein level of approx 60%) was dissolved/suspended in 100 ml Milli-Q water. During gastric simulation 5 M HCl was used to decrease the pH. At the end of gastric simulation and during the duodenal phase 5 M NaOH was used to raise the pH.
The CDBAP suspension was preheated to 37.5° C. and 5 ml of the suspension was removed to dissolve 0.31 g of pepsin (Fluka order no. 77161). At t=0 min the 5 ml with the now dissolved pepsin was added back to the suspension. Then the pH of the CDBAP suspension was adjusted slowly by hand using a separate pH meter according to the following scheme:
t=20 min pH decreased to 3.5 t=40 min pH to 3.0 t=50 min pH to 2.3 t=60 min pH to 1.8 t=65 min pH raised to 2.7 t=75 min pH to 3.7 t=80 min pH to 5.3 […]
Then the samples were transferred into a beaker and were placed in a microwave till boiling. […] The total N concentration of the powder as obtained was determined and converted to protein level using the Kjeldahl factor of casein (6.38). […] The levels of MAP and ITP surviving the proteolytic treatment according to the GIT procedure were determined as described in Example 7 and the data obtained are shown in Table 10.

[6] = as restated in the description, read-out: IC50 value in the Modified Matsui test

Substance	IC50 [1]	ACE inhibiting activities reported [1]	IC50 [2]	IC50 [3, 6]	antihypertensive effects [4]	IC50 ([3]; chemically synthesized tripeptides, read-out: IC50 value, Modified Matsui assay)	Concentration of tripeptide in CDBAP before GIT procedure ([5]; CDBAP (Example 7), before passage)	Concentration of tripeptide in CDBAP after GIT procedure ([5]; CDBAP after GIT, pepsin then pancreatin, 125 min, 37.5° C.)	resistance against GIT digestion ([5]; simulated gastro-intestinal digestion)
Leu-Pro-Pro [LPP]	9.6 µM	Strong ACE inhibiting activities	–	–	–	–	–	–	–
Ile-Pro-Pro (IPP)	5 µM	Strong ACE inhibiting activities	7.1 µM	2 µM	confirmed	–	–	–	–
Ile-Thr-Pro (ITP)	–	–	50 µM	10 µM	–	10 µM	903.7 μg g^−1 powder	889.1 μg g^−1 powder	high resistance; also recorded: resist gastrointestinal proteolytic degradation; also recorded: survive
Val-Pro-Pro [VPP]	–	Strong ACE inhibiting activities	–	–	confirmed	–	–	–	–
